Reference: patent publication US11008572B2, “Methods and compositions for modulating splicing” (SKYHAWK THERAPEUTICS, INC., priority 2017, dated 2021)

How the values were obtained:
SMN2^FL mRNA = assay: SMN2 splicing assay, real-time quantitative PCR, SMA type I patient cells (GM03813); assay type: cell-based; conditions: Homo sapiens, 24 hours
Method: (§1) Various cells lines were treated with the SMSMs described herein. RNA was then isolated, cDNA synthesized, qPCR performed and the levels of various mRNA targets of the SMSMs were determined. In some instances, RNA was isolated, cDNA synthesized, qPCR performed and the levels of mRNA isoforms in the various cell samples were determined.
(§2) SMA type I patient cells (GM03813 (Coriell))
(§3) On the day of the experiment, a 96-well plate was seeded with the cell lines of interest. The cells were diluted with full growth media to a concentration of 2.0×10^5 cells/mL and 100 μL of cells were added to each well (20,000 cells per well). The cells were treated with a compound immediately after plating.
(§4) The compounds were then added to the cell plate using the HP compound dispenser. In the initial experiment, a top concentration of 10 μM and an 8 point 4-fold dilution scheme was used. The stock compounds were made at a concentration of 5 mM, and the DMSO concentration was set to 0.2%. DMSO was used to normalize all the compound-containing wells and the untreated cells.
(§5) The treated cells were incubated at 37° C. in a 5% CO2 incubator for the desired amount of time. Plates were placed in a plastic bag with a wet paper towel to prevent evaporation.
(§6) RNA was isolated using the Cells to CT kit (ThermoFisher, AM1728). The cells were washed once with 100 μL cold PBS. 50 μL of lysis buffer was added to each well/tube (49.5 μL lysis buffer+0.5 μL DNase I per well/tube). The lysis reaction was mixed and incubated at room temperature for 5 minutes. 5 μL of stop solution was added directly into each cell lysis reaction and mixed by pipetting up and down 5 times. The plates/tubes were incubated at room temperature for 2 minutes then placed on ice if the cDNA synthesis was to be performed immediately. Otherwise, the plates/tubes were stored at −80° C.
(§7) cDNA synthesis reactions were then performed. 40 μL RT master mix was added to PCR tubes or plate wells. 10 μL of RNA was added to each tube/well. The RT thermal cycler program was then run and tubes or plate wells were incubated at 37° C. for 1 hour, then at 95° C. for 5 minutes to deactivate the enzyme.
(§8) The qPCR was performed using a QuantStudio 6instrument (ThermoFisher) and the following cycling conditions and according to the tables below. All samples and standards were analyzed in triplicate. Cycle 1: 2 minutes at 50° C. Cycle 2: 10 minutes at 95′C. Cycle 3 (repeat 40 times): 15 seconds at 95° C., 1 minute at 60° C.
(§9) The determined SMN2^Δ7 and SMN2^FL quantities were then be used to determine the SMN2^Δ7:SMN2^FL ratio at the various compound concentrations. The PPIA quantities were used in the normalization to account of cell proliferation effects of the compounds.
(§10) An assay to measure the SMN2^FL mRNA and SMN2^Δ7 mRNA simultaneously in cell wells was performed. The RNA values were measured relative to DMSO control and also included a housekeeping gene, PPIA to ensure data was consistent. The mRNA values were measured after 24 hours of incubation with the SMSM compounds.
(§11) Additionally, to monitor expression levels of SMN2 splice variant using real-time quantitative PCR, SMA type I patient cells (GM03813 (Coriell)) were plated at 5,000 cells/well in 200 μl Dulbecco's modified Eagle's medium (DMEM) with GlutaMAX and 10% fetal bovine serum (FBS) (Life Technologies, Inc.) in 96-well plates, and incubated for 6 hours in a cell culture incubator. Cells were then treated with SMSMs at different concentrations (0.5% DMSO) in duplicate for 24 hours. After removal of the supernatant, cells were lysed in Cells-To-Ct lysis buffer (Life Technologies, Inc.) according to the manufacturer's recommendations. The mRNA levels of SMN2 FL, SMN2 A7 were quantified using Taqman-based RT-qPCR and SMN2-specific primers and probes. The SMN2 forward and reverse primers were each used at a final concentration of 0.4 μM. The SMN2 probe was used at a final concentration of 0.1 μM. […]

SMN2^Δ7 mRNA = assay: as above; assay type: cell-based; conditions: Homo sapiens, 24 hours
Method: as §1, §2, §3, §4, §5, §6, §7, §8, §9, §10, §11

A375 xenografts = assay: A375 xenograft tumor growth inhibition; assay type: in vivo; conditions: immunocompromised nude mice with pre-existing A375 xenografts
Method: Studies were performed to assess the effects of in vivo SMSM treatment on glioblastoma, breast, pancreatic, prostate, melanoma, lymphoma and Ewing sarcoma tumors. Studies were also performed to assess the effects of in vivo SMSM treatment on mRNA levels. Immunocompromised nude mice with pre-existing glioblastoma, breast, pancreatic, prostate, melanoma, lymphoma and Ewing sarcoma xenografts were treated with vehicle or SMSMs. Tumor tissues from subcutaneous xenografts were broken into a powder using a BioPulverizer (Biospec Products, Inc.). After SMSM treatment, mRNA was isolated from the xenografts and was analyzed by qRT-PCR.
Tumor size was measured 2 times per week in two dimensions using a caliper. Studies were terminated when the tumor size in the vehicle treated group reached 2,000 mm^3. Each mouse was bled at 2 hrs after the last dose and at least 50 μl of plasma was collected from each mouse. All of the collected plasma samples and retainer dosing solutions for each dose level were used for bioanalytical measurements. All tumors were also collected and weighed. One necrosis-free tumor fragment of approximately 50 mg was taken from each tumor and flash-frozen for RNA isolation. […]
The effects of in vivo SMSM treatments on pre-existing subcutaneous glioblastoma, breast, pancreatic, prostate, melanoma, lymphoma and Ewing sarcoma xenografts were assessed. […]

[1] = Splicing (IC50), Example 22; assay type: cell-based; conditions: spliced gene and cells not stated
Method: A-673 cell viability […], splicing (IC50) and brain AUC/Plasma AUC of SMSMs were determined. As shown in the tables below SMSMs had high CNS exposure.

Row | SMILES | EC50 (SMN2^FL mRNA) | IC50 (SMN2^Δ7 mRNA) | tumor growth inhibition (TGI), in words (A375 xenografts) | IC50 [1]
1 | CN(c1ccc(-c2ccc(-c3cn[nH]c3)cc2O)nn1)[C@@H]1C[C@H]2CC[C@@H](C1)N2 [compound 138, 2-(6-(((1R,3s,5S)-8-azabicyclo[3.2.1]octan-3-yl)(methyl)amino)pyridazin-3-yl)-5-(1H-pyrazol-4-yl)phenol] | 1 nM | 1 nM |  | 
2 | CN(c1ccc(-c2ccc(-c3cn[nH]c3)cc2O)nn1)[C@H]1C[C@]2(C)CC[C@](C)(C1)N2 [compound 151, 2-(6-(((1R,3s,5S)-1,5-dimethyl-8-azabicyclo[3.2.1]octan-3-yl)(methyl)amino)pyridazin-3-yl)-5-(1H-pyrazol-4-yl)phenol] | 0.7 nM | 0.9 nM | led to tumor growth inhibition | < 1 nM
3 | CN(c1ccc(-c2ccc(-c3cn[nH]c3)cc2O)nn1)[C@@H]1C[C@H]2CCC[C@@H](C1)N2 [compound 160, 2-(6-(((1R,3s,5S)-9-azabicyclo[3.3.1]nonan-3-yl)(methyl)amino)pyridazin-3-yl)-5-(1H-pyrazol-4-yl)phenol] | 0.6 nM | 0.7 nM | led to tumor growth inhibition | < 1 nM
